Test results taken from paper PMC12606464, “Investigating NFE2L1 activators for targeted protein aggregate clearance: a follow-up study” (RSC Medicinal Chemistry, 2025).

Assays:
[1] = tested on: ubiquitin-proteasome system; assay: Ub-G76V-GFP reporter degradation in U2OS cells; type: cell-based; conditions: U2OS cells, Fig. S3
Source text: We next examined whether the selected RUN compounds activate the NFE2L1 pathway in a stress-independent manner, while preserving normal ubiquitin-dependent proteasomal degradation. This distinction is crucial, as the therapeutic benefit of NFE2L1 activation lies in its ability to alleviate proteotoxic stress and target disease-related proteins for degradation without compromising normal proteostasis. To assess this, U2OS cells stably expressing the short-lived fluorescent reporter Ub-G76V-GFP were treated with various concentrations of RUN compounds. […] We also examined whether compound-induced activation of NFE2L1 could be attributed to the generation of reactive oxygen species (ROS). To test this, the 3×PSMA4-ARE-LUC reporter assay was performed in the presence or absence of the antioxidant N-acetyl-L-cysteine (NAC). A decrease in reporter activity upon NAC treatment would indicate pathway activation through oxidative stress.
RUN compound (5 µM) for 8 hours. Fluorescence intensity was normalized to cell viability (measured by the alamarBlue assay) and compared to vehicle control (DMSO). Unlike the […]
as means ± SD from three independent experiments (n = 3). Statistical analysis was performed using a multiple unpaired t-test with Welch’s correction, with adjustment for multiple comparisons by the Holm–Šídák method (α = 0.05). ****p<0.0001. Detailed results of the analysis are shown in Supplementary Table S14. […]
2.4 Monitoring protein degradation using UbG76V-GFP reporter cells
U2OS cells stably expressing the Ub-G76V-GFP reporter were seeded into 96-well plates at and cultured overnight under standard conditions. On the following day, cells were treated with the indicated test compounds or DMSO vehicle control for 8 hours. After treatment, GFP fluorescence intensity was measured, providing a readout of proteasome-dependent degradation of the Ub-G76V-GFP substrate. Cell viability was then assessed in the same wells using the alamarBlue assay according to the manufacturer’s protocol. Viability values were used for normalization of fluorescence data to account for differences in cell number. Accumulation of GFP signal relative to DMSO-treated controls was interpreted as reduced degradation of UPS substrates, indicating potential effects of the compounds on the natural protein turnover.
Statistical comparison of RUN compounds with ASC-JM17 was performed using a multiple unpaired t-test with Welch’s correction, with adjustment for multiple comparisons by the Holm–Šídák method (α = 0.05) in GraphPad Prism (v 10.6.1). […]
RNA was extracted using […]
the RNeasy® Plus Micro Kit according to the manufacturer’s instructions. Complementary DNA (cDNA) was synthesized from RNA using either t he TATAA GrandScript cDNA Supermix (TATAA Biocenter) or the QuantiTect® Reverse Transcription Kit (Qiagen), following the respective protocols. Quantitative RT -PCR was performed on a LightCycler® 480 instrument (Roche Life Science) using the TATAA SYBR® Gr andMaster® Mix (TATAA […]
Biocenter). Gene expression levels were normalized to RPLP0, and relative expression was calculated using the ΔΔCt method. Data were expressed as fold change relative to the corresponding DMSO control. Statistical analysis of changes in gene expression was performed w ith a ratio paired t-test corrected for multiple comparisons using Holm-Šídák's method (α = 0.05) in GraphPad Prism (v 10.6.1).
Table S1. Sequences of primer pairs used in the qRT -PCR analysis of gene expression.

[2] = tested on: IRE1/XBP1s; assay: XBP1 endoplasmic reticulum stress reporter assay (CMV-XBP-GLuc); type: cell-based, human; conditions: Figure S5; for Mean diff, MG132 vs. RUN compound (log2-transformed values) / Mean diff, DMSO vs. treatment (log2-transformed values): Dunnett's multiple comparisons test; for Mean 2 (mean of log2-transformed values, treatment; DMSO = 0): N = 3
Source text: Next, we investigated whether the selected RUN compounds activate the NFE2L1 transcriptional program without triggering the unfolded protein response (UPR), a crucial cellular process induced by the accumulation of unfolded proteins in the endoplasmic reticulum (ER), potentially leading to ER stress. To monitor this, an alternative reporter was used to assess the activation of IRE1/XBP1s.[47] IRE1 is a bifunctional serine/threonine kinase and endoribonuclease embedded in the ER membrane, playing a central role in UPR signaling. Its RNase activity facilitates the splicing of X-box binding protein 1 (XBP1) mRNA. The spliced XBP1 acts as a transcription factor, promoting the re-establishment of ER homeostasis by upregulating genes involved in the ER-associated degradation (ERAD) pathway.[48–50] The reporter contains Gaussia luciferase positioned out of frame downstream of the XBP1 splice site, ensuring that active luciferase translation occurs only in the presence of ER stress.[51,52] Cells transfected with this reporter were treated with RUN compounds at 1, 5, and 10 μM, and luciferase activity was measured.
Figure S5: Impact of RUN compounds on ER stress-induced activation of the XBP1 reporter.
HEK293 cells were transfected with the CMV-XBP-GLuc reporter plasmid and allowed to stabilize overnight. Following stabilization, the cells were treated with MG132 or various concentrations of the test compounds (1, 2, 3, 5, 7.5, and 10 µM) for 16 hours. The Gaussia luciferase signal, which reflects XBP1 mRNA splicing, was adjusted based on cell viability as measured by the alamarBlue assay. Data are represented as Geomean ± GeoSD of three independent experiments ( n = 3. Statistical comparison of MG132 and RUN compounds vs DMSO and RUN compounds vs MG132 was performed on log2-transformed values using two-way repeated-measures ANOVA with Geisser –Greenhouse correction, followed by Dunnett’s multiple comparisons test with individual variances computed for each comparison. Results of the analysis are shown in Supplementary Table S15. […]
GraphPad Prism (v 10.6.1).
2.8 XBP1-endoplasmic reticulum (ER) stress reporter assay
HEK293 cells were seeded in 6-well plates and incubated for 24 hours before being transfected with a plasmid containing the CMV-XBP-Gluc reporter using Lipofectamine 2000.(4) After 6 hours, the transfected cells were subsequently transferred to 384-well plates, stabilized overnight, and treated with the proteasome inhibitor and ER stress inducer MG132 and/or various concentrations of RUN compounds (1, 5, and 10 µM) or vehicle (DMSO) for 16 hours. Luciferase activity was normalized to cell viability, which was assessed using the alamarBlue assay. The results are expressed as the fold change compared with the DMSO control, with the experiment conducted in biological triplicate. […]

## COc1ccc(/C=C2\CC(NC(=O)C3CCCC3)C/C(=C\c3ccc(OC)c(OC)c3)C2=O)cc1OC (stereo not drawn) [RUN-89]
[1]
  Ub-G76V-GFP reporter assay, mean: 1.17
[2]; 1 µM
  Mean diff, MG132 vs. RUN compound (log2-transformed values): 1.977
  Mean 2 (mean of log2-transformed values, treatment; DMSO = 0): 0.1287
[2]; 5 µM
  Mean diff, MG132 vs. RUN compound (log2-transformed values): 1.754
  Mean 2 (mean of log2-transformed values, treatment; DMSO = 0): 0.9716
[2]; 10 uM
  Mean diff, MG132 vs. RUN compound (log2-transformed values): 2.213
  Mean 2 (mean of log2-transformed values, treatment; DMSO = 0): 1.744
[2]; DMSO vs. 1 µM
  Mean diff, DMSO vs. treatment (log2-transformed values): -0.1287
[2]; DMSO vs. 5 µM
  Mean diff, DMSO vs. treatment (log2-transformed values): -0.9716
[2]; DMSO vs. 10 uM
  Mean diff, DMSO vs. treatment (log2-transformed values): -1.744

## COc1ccc(/C=C2\CC(NC(=O)c3ccccn3)C/C(=C\c3ccc(OC)c(OC)c3)C2=O)cc1OC (stereo not drawn) [RUN-94]
[1]
  Ub-G76V-GFP reporter assay, mean: 1.19
[2]; 1 µM
  Mean diff, MG132 vs. RUN compound (log2-transformed values): 2.183
  Mean 2 (mean of log2-transformed values, treatment; DMSO = 0): -0.07708
[2]; 5 µM
  Mean diff, MG132 vs. RUN compound (log2-transformed values): 1.118
  Mean 2 (mean of log2-transformed values, treatment; DMSO = 0): 1.607
[2]; 10 uM
  Mean diff, MG132 vs. RUN compound (log2-transformed values): 2.807
  Mean 2 (mean of log2-transformed values, treatment; DMSO = 0): 1.15
[2]; DMSO vs. 1 µM
  Mean diff, DMSO vs. treatment (log2-transformed values): 0.07708
[2]; DMSO vs. 5 µM
  Mean diff, DMSO vs. treatment (log2-transformed values): -1.607
[2]; DMSO vs. 10 uM
  Mean diff, DMSO vs. treatment (log2-transformed values): -1.15

## COc1ccc(/C=C2\CC(N)C/C(=C\c3ccc(OC)c(OC)c3)C2=O)cc1OC (stereo not drawn) [RUN-81]
[1]
  Ub-G76V-GFP reporter assay, mean: 1.14
[2]; 1 µM
  Mean diff, MG132 vs. RUN compound (log2-transformed values): 2.079
  Mean 2 (mean of log2-transformed values, treatment; DMSO = 0): 0.02701
[2]; 5 µM
  Mean diff, MG132 vs. RUN compound (log2-transformed values): 2.509
  Mean 2 (mean of log2-transformed values, treatment; DMSO = 0): 0.216
[2]; 10 uM
  Mean diff, MG132 vs. RUN compound (log2-transformed values): 3.74
  Mean 2 (mean of log2-transformed values, treatment; DMSO = 0): 0.2168
[2]; DMSO vs. 1 µM
  Mean diff, DMSO vs. treatment (log2-transformed values): -0.02701
[2]; DMSO vs. 5 µM
  Mean diff, DMSO vs. treatment (log2-transformed values): -0.216
[2]; DMSO vs. 10 uM
  Mean diff, DMSO vs. treatment (log2-transformed values): -0.2168
